Test results: ChEMBL document CHEMBL5579794, “Improved synthesis and evaluation of preclinical pharmacodynamic parameters of a new monocyclic β-lactam DPI-2016” (Bioorg Med Chem Lett, 2024)

Legend:
[1] = Plasma protein binding in human at 1 uM incubated for 6 hrs by LC-MS/MS analysis; format: ADME, cell-free; conditions: read-out: PPB (converted)
[2] = Plasma protein binding in rat at 1 uM incubated for 6 hrs by LC-MS/MS analysis; format: ADME, cell-free; conditions: read-out: PPB (converted)
[3] = Stability in human liver microsomes at 0.2 mg/ml measured up to 60 mins in presence of NADPH by LC-MS/MS analysis; format: ADME, Microsome; conditions: 1 h
[4] = Stability in dog liver microsomes at 0.2 mg/ml measured up to 60 mins in presence of NADPH by LC-MS/MS analysis; format: ADME, Canis lupus familiaris, Microsome; conditions: 1 h
[5] = Stability in mouse liver microsomes at 0.2 mg/ml measured up to 60 mins in presence of NADPH by LC-MS/MS analysis; format: ADME, Microsome; conditions: 1 h
[6] = Stability in rat liver microsomes at 0.2 mg/ml measured up to 60 mins in presence of NADPH by LC-MS/MS analysis; format: ADME, Microsome; conditions: 1 h
[7] = Stability in monkey liver microsomes at 0.2 mg/ml measured up to 60 mins in presence of NADPH by LC-MS/MS analysis; format: ADME, Macaca mulatta, Microsome; conditions: rhesus monkey, 1 h
[8] = Stability in dog plasma at 1 uM measured upto 120 mins by LC-MS/MS analysis; format: ADME, cell-free, Canis lupus familiaris; conditions: 2 h
[9] = Stability in monkey plasma at 1 uM measured upto 120 mins by LC-MS/MS analysis; format: ADME, cell-free, Macaca mulatta; conditions: rhesus monkey, 2 h
[10] = Stability in human plasma at 1 uM measured upto 120 mins by LC-MS/MS analysis; format: ADME, cell-free; conditions: 2 h
[11] = Stability in rat plasma at 1 uM measured upto 120 mins by LC-MS/MS analysis; format: ADME, cell-free; conditions: 2 h
[12] = Stability in mouse plasma at 1 uM measured upto 120 mins by LC-MS/MS analysis; format: ADME, cell-free; conditions: 2 h

For `CC(=O)Nc1ccc(O)cc1` [ACETAMINOPHEN], which fraction unbound at 6 h, 1 µM [1] is on record?
The fraction unbound at 6 h, 1 µM was 0.741.

And the fraction unbound at 6 h, 1 µM [2]?
Its fraction unbound at 6 h, 1 µM is 0.526.

For `Cc1ncc2n1-c1ccc(Cl)cc1C(c1ccccc1F)=NC2` [MIDAZOLAM], which Stability [3] is on record?
Its Stability is “Unstable”.

What about the Stability [4] of the same molecule?
Its Stability is “Unstable”.

What about the Stability [5] of the same molecule?
Its Stability is “Unstable”.

What about the Stability [6] of the same molecule?
The Stability was “Unstable”.

What about the Stability [7] of the same molecule?
The Stability was “Unstable”.

What does the source list for `CC(C)[N+](C)(CCOC(=O)C1c2ccccc2Oc2ccccc21)C(C)C` [PROPANTHELINE]?
Stability [8]: Unstable; Stability [9]: Unstable; Stability [10]: Unstable; Stability [11]: Unstable; Stability [12]: Unstable
